{
  "source": "patent US5385831A",
  "about": "“Method for producing a mammalian G protein coupled glutamate receptor” (priority 1993, dated 1995)",
  "key": {"[1]": {"biological_target": "T1, GluG R encoded by clone 45-A (Rattus norvegicus, UniProt P23385)", "T1 sequence (P23385 19-1199)": "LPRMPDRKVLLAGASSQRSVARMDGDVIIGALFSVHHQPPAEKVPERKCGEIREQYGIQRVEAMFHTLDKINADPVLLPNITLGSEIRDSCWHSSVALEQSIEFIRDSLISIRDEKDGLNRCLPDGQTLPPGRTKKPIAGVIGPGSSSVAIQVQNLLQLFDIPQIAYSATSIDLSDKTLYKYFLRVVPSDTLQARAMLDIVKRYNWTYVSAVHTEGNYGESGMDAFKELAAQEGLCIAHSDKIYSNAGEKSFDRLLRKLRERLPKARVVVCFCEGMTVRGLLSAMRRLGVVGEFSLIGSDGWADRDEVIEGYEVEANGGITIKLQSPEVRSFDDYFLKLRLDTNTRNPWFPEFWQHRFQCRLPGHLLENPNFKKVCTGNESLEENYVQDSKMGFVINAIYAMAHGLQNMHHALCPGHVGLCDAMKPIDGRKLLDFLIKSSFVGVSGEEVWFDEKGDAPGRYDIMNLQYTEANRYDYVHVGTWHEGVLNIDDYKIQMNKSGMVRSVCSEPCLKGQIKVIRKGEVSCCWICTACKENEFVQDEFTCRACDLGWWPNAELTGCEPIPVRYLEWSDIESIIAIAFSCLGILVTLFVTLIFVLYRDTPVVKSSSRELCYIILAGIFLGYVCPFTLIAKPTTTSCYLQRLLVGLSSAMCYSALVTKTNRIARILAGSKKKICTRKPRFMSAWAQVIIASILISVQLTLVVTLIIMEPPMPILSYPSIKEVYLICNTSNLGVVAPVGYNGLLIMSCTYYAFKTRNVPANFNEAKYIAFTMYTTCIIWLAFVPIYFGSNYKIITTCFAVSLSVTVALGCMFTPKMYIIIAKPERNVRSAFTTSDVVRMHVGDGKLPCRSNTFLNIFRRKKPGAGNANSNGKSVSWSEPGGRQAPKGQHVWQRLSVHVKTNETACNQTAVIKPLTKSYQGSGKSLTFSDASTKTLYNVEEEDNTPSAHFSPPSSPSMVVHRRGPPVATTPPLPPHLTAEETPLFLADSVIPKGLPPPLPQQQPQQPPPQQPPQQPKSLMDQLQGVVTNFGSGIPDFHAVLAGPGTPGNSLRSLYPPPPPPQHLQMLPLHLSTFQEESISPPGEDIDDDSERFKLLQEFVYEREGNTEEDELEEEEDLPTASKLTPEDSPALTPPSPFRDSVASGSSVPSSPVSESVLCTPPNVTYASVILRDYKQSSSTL", "assay": "Voltage-clamp assay of L-glutamic acid analogs at saturating concentrations in injected oocytes", "assay_type": "cell-based", "set-up": "expressed in transfected cells; host or cells: Xenopus oocytes injected with in vitro transcribed (T7, pVEGT') clone 45-A RNA"}, "[2]": {"biological_target": "T1, GluG R encoded by clone 45-A", "conditions": "read-out: Glutamate Analog Potencies (EC50); Xenopus oocytes injected with 45-A RNA; responses normalized to subsequent response to 100 μM L-glutamic acid"}, "[3]": {"test_system": "glutamate G protein coupled receptor", "assay": "Voltage-clamp assay of antagonist inhibition of glutamic acid-evoked current in injected oocytes", "assay_type": "cell-based, rat", "conditions": "1 mM DL-AP3", "experimental": "Voltage clamp assays were also carried out on injected oocytes to measure the inhibition by the putative glutamate G protein coupled receptor antagonist, 2-amino-3-phosphonopropionic acid (AP3)."}, "GluG R": {"test_system": "GluG R", "assay": "Voltage-clamp assay of oocytes injected with RNA from rat cerebellum cDNA library pools", "assay_type": "cell-based", "experimental": "Plasmid DNA prepared from each of the 10 pools of 100,000 clones, which in total represented one sublibrary of one million clones of the cerebellum cDNA library, was purified by cesium chloride gradient ultracentrifugation. The DNA was transcribed in vitro with T7 RNA polymerase (Pharmacia) in the presence of capped nucleotide (GpppG, Pharamcia). […] The transcription reaction tubes were set up by adding 12 μl of 5× transcription buffer (Stratagene Cloning Systems, La Jolla, Calif.), 3 μl each of 10 mM ATP, CTP, GTP, and UTP, 6 μl of 10 mM GpppG (Pharmacia), 6 μl of 1 mg/ml BSA, 3 μl of 200 mM DTT, 1.5 μl of 40 U/μl RNasin (ProMega Biotech, Madison, Wis.), 8.5 μl of water, 10 μl of cDNA containing 5 to 10 μg DNA, and 1 μl of 70 U/μl T7 RNA polymerase. […] Forty microliters of water was added to the radiolabeled reactions, and 1 μl was removed from each sample and counted to determine total counts. […] The samples were centrifuged to collect the RNA and the RNA pellets were counted to determine the counts incorporated into RNA. […]\nThe RNA from each of the 10 sublibraries were injected into oocytes as described above and translation was allowed for four days. Expression of GluG R activity was assessed by voltage-clamp assay as described above. […]"}},
  "data": [
    {"smiles": "C=C(C)[C@H]1CN[C@H](C(=O)O)[C@H]1CC(=O)O", "note": "[kainic acid]", "values": [
      {"measurement": "response normalized to a subsequent response to 100 μM L-glutamate (effective/ineffective)", "setting": "[1]; 1 mM", "result": "ineffective"}
    ]},
    {"smiles": "Cc1onc(O)c1CC(N)C(=O)O", "note": "(stereo not drawn) [AMPA, α-amino-3-hydroxy-5-methyl-isoxazole-4-propionic acid]", "values": [
      {"measurement": "response normalized to a subsequent response to 100 μM L-glutamate (effective/ineffective)", "setting": "[1]; 100 μM", "result": "ineffective"}
    ]},
    {"smiles": "N[C@@H](CC(=O)O)C(=O)O", "note": "[aspartic acid]", "values": [
      {"measurement": "response normalized to a subsequent response to 100 μM L-glutamate (effective/ineffective)", "setting": "[1]; 1 mM", "result": "ineffective"}
    ]},
    {"smiles": "CN[C@H](CC(=O)O)C(=O)O", "note": "[NMDA, N-methyl-D-aspartic acid]", "values": [
      {"measurement": "response normalized to a subsequent response to 100 μM L-glutamate (effective/ineffective)", "setting": "[1]; 100 μM NMDA + 10 μM glycine", "result": "ineffective"}
    ]},
    {"smiles": "N[C@H](C(=O)O)c1cc(=O)[nH]o1", "note": "[Ibotenic acid, ibotenic acid]", "values": [
      {"measurement": "EC50", "setting": "[2]", "result": 32.4, "unit": "µM"}
    ]},
    {"smiles": "NC(CP(=O)(O)O)C(=O)O", "note": "(racemic) [DL-AP3, 2-amino-3-phosphonopropionic acid]", "values": [
      {"measurement": "current evoked by 10 μM glutamic acid, reduced to % of the control", "setting": "[3]", "result": "59.3±7.3", "unit": "%"}
    ]},
    {"smiles": "NC(CCP(=O)(O)O)C(=O)O", "note": "(stereo not drawn) [APB, 2-amino-4-phosphonobytyric acid]", "values": [
      {"measurement": "response normalized to a subsequent response to 100 μM L-glutamate (effective/ineffective)", "setting": "[1]; 100 μM", "result": "ineffective"}
    ]},
    {"smiles": "N[C@@H](Cn1oc(=O)[nH]c1=O)C(=O)O", "note": "[Quisqualic acid, quisqualic acid]", "values": [
      {"measurement": "peak current in response to quisqualate", "setting": "GluG R; oocyte injected with approximately 100 ng RNA from subfractionated pool of 14,000 colonies, estimated from a digital panel meter", "result": "approximately 1300 nA"},
      {"measurement": "signal with administration of quisqualate to the oocyte", "setting": "GluG R; sublibrary pool Z93-1.9 (100,000 clones)", "result": "produced a signal"}
    ]}
  ]
}
